This note sets out measurements from patent publication US6451288B1, “Method of treating lung diseases with uridine 5′-diphosphate and analogs thereof” (The University of North Carolina at Chapel Hill, priority 1997, dated 2002).

Series [1] deals with human nasal epithelial cells. The experiment in a line: Cytosolic Ca2+ measurement (Fura-2) in human nasal epithelial cells. The class given is cell-based. The procedure:
(§1) Human nasal epithelial cells were harvested from turbinates using protease XIV (Sigma, St. Louis, Mo.) for 24-48 h at 4° C., as previously described. R. Wu, et al., Am. Rev. Respir. Dis. 132, 311-320 (1985). Cytosolic Ca^2+ and inositol phosphate measurements were made on nasal cell monolayers plated on porous Transwell Col filters (pore diameter 0.45 μm; Costar, Cambridge, Mass.) and maintained in Ham's F12 media supplemented with 10 ng/mL epidermal growth factor, 3.75 ng/mL endothelial cell growth factor, 500 ng/mL hydrocortisone, 5 ng/mL insulin, and 1 mM CaCl2 (Ham's F12+4X medium). Assays were carried out 7 to 10 days after seeding, a time coincident with the development of the maximal transepithelial potential difference according to N. Nakahata & T. K. Harden, Biochem. J. 241, 337-344 (1987).
(§2) Nasal cells grown on Transwell Col filters affixed to O-rings were maintained in F12+4X medium and studied 7-10 days after cell plating as described above. For Ca^2+i measurements, cells were loaded with Fura-2 and mounted in a miniature Ussing chamber over an objective of a microscope (Zeiss) coupled to a microfluorimeter, and cytosolic Ca^2+i levels were quantitated as previously described in Paradiso et al., supra. The fluorescence intensity ratio (excitation 340/380; emission λ 450 nm) was collected from a field of 30-40 nasal cells on monolayers and converted to Ca^2+ as previously described in E. H. Larsen et al, J. Physiol. 424, 109-131 (1990). For simultaneous measurements of Cl^− secretion, the transepithelial potential difference (TEP) was measured by a Voltage-Clamp/Pulse Generator (Model VCC600, Physiologic Instruments, San Diego, Calif.) and recorded on a two-channel recorder (Linsesis Model L200S). To calculate changes in Cl^− secretory current (ΔICl^−), a defined 1 sec current pulse was delivered across the monolayer every 10 sec. The nasal tissue was converted from its native Na^+ absorptive state to a Cl^− secretory state by exposing monolayers to a luminal medium containing 0 Na^+/low Cl^− and to a basolateral medium of Krebs bicarbonate Ringer solution.

The next series addresses T1, human P2Y6 receptor (Homo sapiens, UniProt Q15077).
T1 construct: expressed in transfected cells
The experiment in a line: Inositol phosphate accumulation in 1321N1 astrocytoma cells overexpressing the human P2Y6 receptor. Particulars: 60 min, hexokinase/glucose present. The class given is cell-based. On the procedure:
The following method was used for measuring inositol phosphate accumulation of the UDP analogs described within this example as drugs. 1321N1 astrocytoma cells, stably overexpressing the human P2Y6 receptor (Nicholas, et al., Mol. Pharmacol. 50, 224-229 (1996)), were seeded into 96 well plates (7500 cells/well) in DMEM-H supplemented with 10% FCS. After 48 hours, the growth media was replaced with inositol-free DMEM-H supplemented with 2.5% dialyzed FCS and [^3H]-inositol (0.2 uCi/well) to radiolabel hormone-responsive inositol phospholipid pools. Cells were stimulated 48 hours later. At the time of assay, the culture media was supplemented with 25 mM HEPES (pH 7.4) and 10 mM […] to prevent hydrolysis of [^3H]-inositol phosphates. In addition, hexokinase (0.03 U/well) and glucose (50 mM final concentration) was added to the cultures to provide an enzymatic mechanism for the depletion of nucleoside triphosphates contaminating drug solutions or released from cells prior to/or during cell stimulation reactions. Drugs were diluted in phosphate buffered saline containing hexokinase/glucose and incubated at 37° for 30 minutes prior to addition to cells. Reactions were terminated after 60 minutes by rapid aspiration of media followed by the addition of ice cold EDTA (1.0 mM) and incubation on ice for at least 15 minutes prior to resolution of [^3H]-inositol phosphates by ion exchange chromatography as described (Brown, et. al., supra).

The subject of series [2] is human nasal epithelial cells. Briefly: Hydrolysis of [3H]UTP and [3H]UDP on human nasal epithelial cell surfaces. The series is classed as in vitro ADME. Conditions: for Nucleotide Hydrolysis MUCOSAL / Nucleotide Hydrolysis SEROSAL: 20 min incubation period, mean ± range of two experiments; for Nucleotide Hydrolysis SEROSAL: serosal surface. On the procedure: (§3) Nasal monolayers were grown to confluence on 6.5 mm Transwells (Costar) as indicated above. The cells were washed twice and preincubated with 300 μl HEPES-buffered (pH, 7.4) DMEM medium for at least one hour prior to the addition of the [^3H]-nucleotides to ensure that any endogeneously released ATP was degraded. Incubations were initiated by addition of 2 μM [^3H]UTP or [^3H]UDP (0.5 μCi each) to either cell surface. Incubations were terminated at the indicated times by transferring the medium to a tube containing 30 μl 50 mM EDTA and boiled for 2 min. Nucleotides were separated by HPLC (Shimadzu Scientific Instruments, Inc., Columbia, Md.) via a strong anion exchange column (Rainin Instrument Co., Emeryville, Calif.) using a two solvent system consisting of buffer A (45 mM ammonium formate, pH 4.6) and buffer B (250 mM sodium phosphate, pH 2.7). A linear gradient was developed from 100% buffer A to 100% B during the first 25 min. The column then was eluted with 100% buffer B for the […] and with 100% buffer A for an additional 15 min from 45 to 60 min. Absorbance at 260 nm was monitored with a LSA UV detector (Shimadzu), and radioactivity was monitored on-line with a Flo-One detector (Packard Instrument Co., Meridien, Conn.). [^3H]Nucleotides and [^3H]nucleosides were quantitated as previously described. Id. Confluent polarized cells were incubated for 20 min at 37° C. in the presence of 1 μM (0.2 μCi) of [3H]UTP, [^3H]UDP, or [^3H]UDP combined with 100 μM ATP. All additions were to the mucosal bath (300 μl final volume). Incubations were terminated by transferring the mucosal medium to an Eppendorf tube containing 30 μl 50 mM EDTA, followed by boiling. [^3H]Species were separated by HPLC as indicated in Example 6. Hydrolysis of both [^3H]UTP and [^3H]UDP on the surface of human nasal epithelial cells was determined on both cell surfaces by the following procedures: primary cultures of HNE cells were grown to confluence on 6.5 mm Transwells as a polarized epithelium. The cells were washed twice with pre-warmed DMEM-HEPES medium (pH 7.4), and were pre-incubated for 1 hour at 37° C with 0.5 mL of medium added on each side. Incubations were initiated by the addition 50 μl of 10 μM (0.5 μCi) [^3H]UTP or [^3H]UDP on the indicated cell surface. Medium samples were collected during a 20 min incubation period and analyzed by HPLC as described in Example 6. The values represent the mean (±range from the mean) from two experiments performed with duplicate samples.

Series [3] relates to human nasal epithelial cells. Briefly: [3H]inositol phosphate formation in polarized human nasal epithelial cells. Particulars: Homo sapiens, Epithelial cell, 10 min; added to mucosal medium, 10 min; read-out: EC50 for stimulating inositol phosphate formation. The class given is cell-based. The procedure:
as §1
Confluent human nasal epithelial cells as described in Example 1 were labeled for 18 h in inositol-free DMEM containing 4.5g/L glucose and 5 μCi/mL of [^3H]myo-inositol. These cells were pre-incubated with 10 mM LiCl and challenged with agonists for an additional 10 min. No changes of medium were made subsequent to addition of [^3H]myo-inositol to avoid release of endogenous ATP from stressed cells. E. R. Lazarowski et al., Br. J Pharmacol. 116, 1619-1627 (1995). Incubations were terminated by addition of 5% ice-cold trichloroacetic acid and the resultant [^3H]inositol phosphates were separated on Dowex AG1-X8 columns as described in A. M. Paradiso et al., Nature 377, 643-646 (1995).

In series [4] the test system is human nasal epithelial cells. The experiment in a line: Cl- secretion (transepithelial potential difference, Ussing chamber) in human nasal epithelial cells. The class given is cell-based. On the procedure: as §1, §2
Series [5] is described as follows: Hydrolysis of [3H]UTP and [3H]UDP on human nasal epithelial cell surfaces. The class given is in vitro ADME. Particulars: human, pH 7.4; mucosal, time course; read-out: Half life (t½). The procedure:
as §3

The term EC50 denotes the concentration giving half of the maximal effect. One may read the half-life as how long it takes for the measured level to halve.

Each structure is given as a SMILES string.

T1 sequence (Q15077 whole entry): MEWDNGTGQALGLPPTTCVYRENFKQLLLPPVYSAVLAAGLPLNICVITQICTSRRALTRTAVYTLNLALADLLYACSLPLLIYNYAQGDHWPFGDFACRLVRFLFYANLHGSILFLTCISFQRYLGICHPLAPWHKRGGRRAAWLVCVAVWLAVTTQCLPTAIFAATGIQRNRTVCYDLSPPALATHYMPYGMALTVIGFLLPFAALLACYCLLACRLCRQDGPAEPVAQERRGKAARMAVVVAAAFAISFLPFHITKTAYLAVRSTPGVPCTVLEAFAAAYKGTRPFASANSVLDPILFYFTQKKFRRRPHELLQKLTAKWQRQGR

For `Nc1ncnc2c1ncn2[C@@H]1O[C@H](COP(=O)(O)OP(=O)(O)OP(=O)(O)O)[C@@H](O)[C@H]1O` [ATP, reference compound], the “Responses following multiple additions of UDP” value in series [1] (after multiple additions of UDP) is listed as “retained”.

In turn, `Cc1cn([C@@H]2O[C@H](COP(=O)(O)OP(=O)(O)O)[C@@H](O)[C@H]2O)c(=O)[nH]c1=O` [Compound A, 5-Methyluridine 5′-diphosphate] came in with a 50% effective concentration (EC50) at human P2Y6 receptor of 0.5 µM.

Turning to `CCCCCCOc1ccn([C@@H]2O[C@H](COP(=O)(O)OP(=O)(O)O)[C@@H](O)[C@H]2O)c(=O)n1` [Compound B, 4-Hexyloxyuridine 5′-diphosphate], the 50% effective concentration (EC50) on human P2Y6 receptor worked out at 3 µM.

Compound `CN(C)c1ccn([C@@H]2O[C@H](COP(=O)(O)OP(=O)(O)O)[C@@H](O)[C@H]2O)c(=O)n1` [Compound C, N,N-dimethylcytidine 5′-diphosphate] had an EC50 at human P2Y6 receptor of 41.7 µM.

`COc1ccn([C@@H]2O[C@H](COP(=O)(O)OP(=O)(O)O)[C@@H](O)[C@H]2O)c(=O)n1` [Compound D, 4-Methoxyuridine 5′-diphosphate] came in with a half-maximal effective concentration (EC50) at human P2Y6 receptor of 4.7 µM.

For `CCCCCCNc1ccn([C@@H]2O[C@H](COP(=O)(O)OP(=O)(O)O)[C@@H](O)[C@H]2O)c(=O)n1` [Compound E, N-hexylcytidine 5′-diphosphate], the EC50 at human P2Y6 receptor stood at 25.5 µM.

The compound `O=c1nc(N2CCOCC2)ccn1[C@@H]1O[C@H](COP(=O)(O)OP(=O)(O)O)[C@@H](O)[C@H]1O` [Compound F, 4-(N-morpholino)uridine 5′-diphosphate] had an EC50 on human P2Y6 receptor of 55.1 µM.

At human P2Y6 receptor, `O=c1[nH]c(=O)n([C@@H]2O[C@H](COP(=O)(O)OP(=O)(O)O)[C@@H](O)[C@H]2O)cc1C#Cc1ccccc1` [Compound G, 5-(Phenylethynyl)uridine 5′-diphosphate] displayed a 50% effective concentration (EC50) of 0.02 µM.

Take `O=c1ccn([C@@H]2O[C@H](COP(=O)(O)OP(=O)(O)O)C[C@H]2O)c(=O)[nH]1` [Compound H, 3′-Deoxyuridine 5′-diphosphate]: the response at human P2Y6 receptor was half-maximal at 2.1 µM (EC50).

`O=c1nc(NC2CCCC2)ccn1[C@@H]1O[C@H](COP(=O)(O)OP(=O)(O)O)[C@@H](O)[C@H]1O` [Compound I, N-Cyclopentylcytidine 5′-diphosphate]: a half-maximal response on human P2Y6 receptor (EC50) required 8.6 µM.

With `CCCCCCSc1ccn([C@@H]2O[C@H](COP(=O)(O)OP(=O)(O)O)[C@@H](O)[C@H]2O)c(=O)n1` [Compound J, 4-Hexylthiouridine 5′-diphosphate], the response at human P2Y6 receptor was half-maximal at 1.8 µM (EC50).

As to `O=c1ccn([C@@H]2O[C@H](COP(=O)(O)OP(=O)(O)OP(=O)(O)O)[C@@H](O)[C@H]2O)c(=O)[nH]1` [UTP, uridine 5′-triphosphate, reference compound], the “Hydrolysis rate of mucosal UTP relative to mucosal UDP” value in series [2] (mucosal) is 2-3 fold. Also, the concentration giving a half-maximal response (EC50) in series [3] is 0.28 ± 0.035 µM. The ΔCa2+, UDP-treated cells in series [1] (UDP-treated cells, n=8) was determined as 310 ± 35 nM. Moreover, the “ΔCa2+, control cells” value in series [1] (control cells, n=19) came to 374 ± 24 nM. Moreover, the “Cl- secretory response (ΔICl-), mucosal bath” value in series [4] (100 μM, mucosal) is on record as 74±11 μA/cm^2. The “Cl- secretory response (ΔICl-), serosal bath” value in series [4] (100 μM, serosal) worked out at 34±3 μA/cm^2. Further, the ΔCl-, UDP-treated cells in series [4] (UDP-treated cells, n=8, the values are: ΔICl- (Cl- secretory current)) is -61 ± 10 µA/cm². Further, the “ΔICl-, control cells” value in series [4] (control cells, n=12) was −74±11 μA/cm^2.

As to `O=c1ccn([C@@H]2O[C@H](COP(=O)(O)OP(=O)(O)O)[C@@H](O)[C@H]2O)c(=O)[nH]1` [[^3H]UDP], the half-life in series [5] is 27 ± 3 min. In series [2] (mucosal surface), the “Nucleotide Hydrolysis MUCOSAL” value was 87 ± 6. For the same compound, the “Nucleotide Hydrolysis SEROSAL” value in series [2] was 70 ± 9.

On to `O=c1ccn([C@@H]2O[C@H](COP(=O)(O)OP(=O)(O)OP(=O)(O)O)[C@@H](O)[C@H]2O)c(=O)[nH]1` [[^3H]UTP], for which the half-life in series [5] turned out to be 14 ± 2 min. In series [2] (1 μM, 20 min, mucosal surface, 37° C.), the Hydrolysis is reported as 73±16%. For the same compound, in series [2] (mucosal surface), the “Nucleotide Hydrolysis MUCOSAL” value is given as 17 ± 22. The “Nucleotide Hydrolysis SEROSAL” value in series [2] is recorded as 98 ± 11.
